Assay results from patent publication US6414038B2, “Hydroxystilbenes for reducing/inhibiting protein glycation and combating skin aging” (Societe L'Oreal, priority 1999, dated 2002).
Like-named read-outs stand apart in the source and are kept apart here.

Target: bovine serum albumin (Bos taurus, UniProt P02769)
Test: Inhibition of glycation of bovine serum albumin by D-ribose (AGE fluorescence)
Assay type: biochemical
Conditions: for inhibition at 1 µM / inhibition at 10 µM: read-out: % inhibition (of glycation)
Protocol: A solution of bovine serum albumin at 1 mg/ml in solution in phosphate buffered saline (PBS) was incubated at 37° C. for 14 days in the presence or in the absence of D-ribose at the concentration of […], of 3,3′,5,5′-tetrahydroxystilbene or of resveratrol, each at the concentrations of 1 μM and 10 μM.
The glycation was evaluated by measuring the fluorescence of the AGEs at λem.=440 nm emitted by each sample after excitation at λex.=370 nm.
The inhibition of glycation was visualized by the reduction in the fluorescence compared with the sample treated with the sugar alone.

Sequence of bovine serum albumin (P02769 25-607): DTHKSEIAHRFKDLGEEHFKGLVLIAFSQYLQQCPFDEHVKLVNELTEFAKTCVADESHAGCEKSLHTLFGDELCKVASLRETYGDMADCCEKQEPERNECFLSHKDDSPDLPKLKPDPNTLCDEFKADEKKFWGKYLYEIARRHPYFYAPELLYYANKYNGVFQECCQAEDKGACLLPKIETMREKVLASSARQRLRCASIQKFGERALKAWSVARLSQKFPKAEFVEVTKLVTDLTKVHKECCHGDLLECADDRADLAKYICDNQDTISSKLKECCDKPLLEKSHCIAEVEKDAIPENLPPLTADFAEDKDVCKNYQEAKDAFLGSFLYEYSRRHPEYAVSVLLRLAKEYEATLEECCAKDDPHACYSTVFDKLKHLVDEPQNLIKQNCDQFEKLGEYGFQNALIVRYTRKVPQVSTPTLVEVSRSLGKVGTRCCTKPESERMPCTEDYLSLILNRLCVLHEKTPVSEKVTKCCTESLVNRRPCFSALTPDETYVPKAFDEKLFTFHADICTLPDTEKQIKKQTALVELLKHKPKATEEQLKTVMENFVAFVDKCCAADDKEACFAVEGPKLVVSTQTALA

Row | inhibition at 1 µM (compound 1 μM, BSA 1 mg/ml in PBS, D-ribose 10 μM, 37° C., 14 days, AGE fluorescence λex 370 nm/λem 440 nm vs sugar alone) [%] | inhibition at 10 µM (compound 10 μM, BSA 1 mg/ml in PBS, D-ribose 10 μM, 37° C., 14 days, AGE fluorescence λex 370 nm/λem 440 nm vs sugar alone) [%] | antiglycation effect relative to resveratrol (at the concentration of 10 μM) [times] | antiglycation effect (in words) (from the concentration of 1 μM) | inhibition at 1 µM [%] | inhibition at 10 µM [%] | Compound
1 | 7.1 | 7.1 |  |  |  |  | Oc1ccc(C=Cc2cc(O)cc(O)c2)cc1 [B, resveratrol, reference compound]
2 |  |  | ~2 | advantageous antiglycation effect | 7.1 | 14.3 | Oc1cc(O)cc(/C=C/c2cc(O)cc(O)c2)c1 [A, 3,3′,5,5′-tetrahydroxystilbene]
